Key:
[1] = Cytotoxicity against rat R28 cells assessed as decrease in cellular ATP content incubated for 24 hrs by CellTiter-Lumi Plus cell viability assay; format: toxicity, cell-based; conditions: r28, 24 h
R28 = test: Antioxidant activity in rat R28 cells assessed as protection against OGD induced cytotoxicity by measuring cellular ATP level preincubated under OGD condition for 8 hrs followed by reoxygenation for 4 hrs by CellTiter-Lumi Plus cell viability assay; format: functional, cell-based; conditions: dose 0.1-40 µM, time 12.0 hrs

Row | SMILES | Activity [1] | Activity (R28)
1 | CC(C)(O)[C@@H]1CC[C@@](C)([C@H]2CC[C@]3(C)[C@@H]2[C@H](O)C[C@@H]2[C@@]4(C)CC[C@H](OC(=O)CCC(=O)Nc5cccc(N)c5)C(C)(C)[C@@H]4CC[C@]23C)O1 | Non-Toxic | 
2 | CC(C)(O)[C@H]1CC[C@@](C)([C@H]2CC[C@]3(C)[C@@H]2[C@H](O)C[C@@H]2[C@@]4(C)CC[C@H](OC(=O)CCC(=O)Nc5ccc(N)cc5)C(C)(C)[C@@H]4CC[C@]23C)O1 | Non-Toxic | 
3 | CC(C)(O)[C@H]1CC[C@@](C)([C@H]2CC[C@]3(C)[C@@H]2[C@H](O)C[C@@H]2[C@@]4(C)CC[C@H](OC(=O)CCC(=O)O)C(C)(C)[C@@H]4CC[C@]23C)O1 | Non-Toxic | 
4 | CC(C)(O)[C@@H]1CC[C@@](C)([C@H]2CC[C@]3(C)[C@@H]2[C@H](O)C[C@@H]2[C@@]4(C)Cc5sc(NC(=O)CC(=O)O)nc5C(C)(C)[C@@H]4CC[C@]23C)O1 | Non-Toxic | 
5 | CC(C)(O)[C@@H]1CC[C@@](C)([C@H]2CC[C@]3(C)[C@@H]2[C@H](O)C[C@@H]2[C@@]4(C)Cc5c(C(=O)Nc6ccc(N)cc6)noc5C(C)(C)[C@@H]4CC[C@]23C)O1 | Non-Toxic | 
6 | CC(C)(O)[C@@H]1CC[C@@](C)([C@H]2CC[C@]3(C)[C@@H]2[C@H](O)C[C@@H]2[C@@]4(C)CC[C@H](OC(=O)CCC(=O)Nc5ccccc5N)C(C)(C)[C@@H]4CC[C@]23C)O1 | Non-Toxic | 
7 | CC(C)(O)[C@H]1CC[C@@](C)([C@H]2CC[C@]3(C)[C@@H]2[C@H](O)C[C@@H]2[C@@]4(C)CC[C@H](OC(=O)CCC(=O)Nc5cccc(N)c5)C(C)(C)[C@@H]4CC[C@]23C)O1 | Non-Toxic | 
8 | CC(C)(O)[C@H]1CC[C@@](C)([C@H]2CC[C@]3(C)[C@@H]2[C@H](O)C[C@@H]2[C@@]4(C)Cc5sc(NC(=O)CCCC(=O)O)nc5C(C)(C)[C@@H]4CC[C@]23C)O1 | Non-Toxic | 
9 | CC(C)(O)[C@@H]1CC[C@@](C)([C@H]2CC[C@]3(C)[C@@H]2[C@H](O)C[C@@H]2[C@@]4(C)Cc5c(C(=O)NCCCCN)noc5C(C)(C)[C@@H]4CC[C@]23C)O1 | Non-Toxic | 
10 | CC(C)(O)[C@@H]1CC[C@@](C)([C@H]2CC[C@]3(C)[C@@H]2[C@H](O)C[C@@H]2[C@@]4(C)Cc5sc(NC(=O)CCCC(=O)O)nc5C(C)(C)[C@@H]4CC[C@]23C)O1 | Non-Toxic | 
11 | CC(C)(O)[C@@H]1CC[C@@](C)([C@H]2CC[C@]3(C)[C@@H]2[C@H](O)C[C@@H]2[C@@]4(C)CC[C@H](OC(=O)CCC(=O)NCCCN)C(C)(C)[C@@H]4CC[C@]23C)O1 | Non-Toxic | 
12 | CC(C)(O)[C@H]1CC[C@@](C)([C@H]2CC[C@]3(C)[C@@H]2[C@H](O)C[C@@H]2[C@@]4(C)CC[C@H](OC(=O)CCC(=O)Nc5ccccc5N)C(C)(C)[C@@H]4CC[C@]23C)O1 | Non-Toxic | 
13 | CC(C)(O)[C@@H]1CC[C@@](C)([C@H]2CC[C@]3(C)[C@@H]2[C@H](O)C[C@@H]2[C@@]4(C)CC[C@H](O)C(C)(C)[C@@H]4CC[C@]23C)O1 | Non-Toxic | 
14 | CCOC(=O)c1noc2c1C[C@]1(C)[C@H]3C[C@@H](O)[C@@H]4[C@@H]([C@]5(C)CC[C@@H](C(C)(C)O)O5)CC[C@@]4(C)[C@]3(C)CC[C@H]1C2(C)C | Non-Toxic | 
15 | CC(C)(O)[C@H]1CC[C@@](C)([C@H]2CC[C@]3(C)[C@@H]2[C@H](O)C[C@@H]2[C@@]4(C)Cc5sc(N)nc5C(C)(C)[C@@H]4CC[C@]23C)O1 | Non-Toxic | 
16 | CC(C)(O)[C@H]1CC[C@@](C)([C@H]2CC[C@]3(C)[C@@H]2[C@H](O)C[C@@H]2[C@@]4(C)Cc5c(C(=O)Nc6ccc(N)cc6)noc5C(C)(C)[C@@H]4CC[C@]23C)O1 | Non-Toxic | 
17 | CC(C)(O)[C@H]1CC[C@@](C)([C@H]2CC[C@]3(C)[C@@H]2[C@H](O)C[C@@H]2[C@@]4(C)CC[C@H](O)C(C)(C)[C@@H]4CC[C@]23C)O1 | Non-Toxic | Dose-Dependent Effect

Row | SMILES | Activity [1] | Activity (R28)
18 | CC(C)(O)[C@@H]1CC[C@@](C)([C@H]2CC[C@]3(C)[C@@H]2[C@H](O)C[C@@H]2[C@@]4(C)Cc5sc(N)nc5C(C)(C)[C@@H]4CC[C@]23C)O1 | Non-Toxic | 
19 | CC(C)(O)[C@@H]1CC[C@@](C)([C@H]2CC[C@]3(C)[C@@H]2[C@H](O)C[C@@H]2[C@@]4(C)Cc5sc(NC(=O)CCCSSCCCC(=O)O)nc5C(C)(C)[C@@H]4CC[C@]23C)O1 | Non-Toxic | 
20 | CC(C)(O)[C@@H]1CC[C@@](C)([C@H]2CC[C@]3(C)[C@@H]2[C@H](O)C[C@@H]2[C@@]4(C)Cc5c(C(=O)NCCCN)noc5C(C)(C)[C@@H]4CC[C@]23C)O1 | Non-Toxic | 
21 | CC(C)(O)[C@H]1CC[C@@](C)([C@H]2CC[C@]3(C)[C@@H]2[C@H](O)C[C@@H]2[C@@]4(C)Cc5c(C(=O)O)noc5C(C)(C)[C@@H]4CC[C@]23C)O1 | Non-Toxic | 
22 | CC(C)(O)[C@@H]1CC[C@@](C)([C@H]2CC[C@]3(C)[C@@H]2[C@H](O)C[C@@H]2[C@@]4(C)CC[C@H](OC(=O)CCC(=O)Nc5ccc(N)cc5)C(C)(C)[C@@H]4CC[C@]23C)O1 | Non-Toxic | 
23 | CC(C)(O)[C@H]1CC[C@@](C)([C@H]2CC[C@]3(C)[C@@H]2[C@H](O)C[C@@H]2[C@@]4(C)Cc5sc(NC(=O)CC(=O)O)nc5C(C)(C)[C@@H]4CC[C@]23C)O1 | Non-Toxic | 
24 | CC(C)(O)[C@H]1CC[C@@](C)([C@H]2CC[C@]3(C)[C@@H]2[C@H](O)C[C@@H]2[C@@]4(C)Cc5sc(NC(=O)CCCSSCCCC(=O)O)nc5C(C)(C)[C@@H]4CC[C@]23C)O1 | Non-Toxic | 
25 | CCOC(=O)c1noc2c1C[C@]1(C)[C@H]3C[C@@H](O)[C@@H]4[C@@H]([C@]5(C)CC[C@H](C(C)(C)O)O5)CC[C@@]4(C)[C@]3(C)CC[C@H]1C2(C)C | Non-Toxic | 
26 | CC(C)(O)[C@H]1CC[C@@](C)([C@H]2CC[C@]3(C)[C@@H]2[C@H](O)C[C@@H]2[C@@]4(C)Cc5sc(NC(=O)c6ccccc6C(=O)O)nc5C(C)(C)[C@@H]4CC[C@]23C)O1 | Non-Toxic | 
27 | CC(C)(O)[C@H]1CC[C@@](C)([C@H]2CC[C@]3(C)[C@@H]2[C@H](O)C[C@@H]2[C@@]4(C)Cc5c(C(=O)NCCCN)noc5C(C)(C)[C@@H]4CC[C@]23C)O1 | Non-Toxic | 
28 | CC(C)(O)[C@@H]1CC[C@@](C)([C@H]2CC[C@]3(C)[C@@H]2[C@H](O)C[C@@H]2[C@@]4(C)Cc5c(C(=O)NCCCCCCN)noc5C(C)(C)[C@@H]4CC[C@]23C)O1 | Non-Toxic | 
29 | CC(C)(O)[C@H]1CC[C@@](C)([C@H]2CC[C@]3(C)[C@@H]2[C@H](O)C[C@@H]2[C@@]4(C)Cc5c(C(=O)NCCCCCCN)noc5C(C)(C)[C@@H]4CC[C@]23C)O1 | Non-Toxic | 
30 | CC(C)(O)[C@@H]1CC[C@@](C)([C@H]2CC[C@]3(C)[C@@H]2[C@H](O)C[C@@H]2[C@@]4(C)CC[C@H](OC(=O)CCC(=O)O)C(C)(C)[C@@H]4CC[C@]23C)O1 | Non-Toxic | 
31 | CC(C)(O)[C@@H]1CC[C@@](C)([C@H]2CC[C@]3(C)[C@@H]2[C@H](O)C[C@@H]2[C@@]4(C)Cc5c(C(=O)O)noc5C(C)(C)[C@@H]4CC[C@]23C)O1 | Non-Toxic | 
32 | CC(C)(O)[C@@H]1CC[C@@](C)([C@H]2CC[C@]3(C)[C@@H]2[C@H](O)C[C@@H]2[C@@]4(C)Cc5sc(NC(=O)c6ccccc6C(=O)O)nc5C(C)(C)[C@@H]4CC[C@]23C)O1 | Non-Toxic | 
33 | CC(C)(O)[C@H]1CC[C@@](C)([C@H]2CC[C@]3(C)[C@@H]2[C@H](O)C[C@@H]2[C@@]4(C)CC[C@H](OC(=O)CCC(=O)NCCCN)C(C)(C)[C@@H]4CC[C@]23C)O1 | Non-Toxic | 
34 | CC(C)(O)[C@H]1CC[C@@](C)([C@H]2CC[C@]3(C)[C@@H]2[C@H](O)C[C@@H]2[C@@]4(C)Cc5c(C(=O)NCCCCN)noc5C(C)(C)[C@@H]4CC[C@]23C)O1 | Non-Toxic | 
